Assay results reported in EP1285971B1, “Methods for the phenotypic and genotypic assessment of the drug sensitivity of HIV integrase variants” (Tibotec Pharmaceuticals Ltd., priority 2001, dated 2003).
Read-outs that look alike come from different tables or passages of the source.

What was measured:
Assay in all cases: microbe, parasite or virus in culture
Settings in all cases: for fold change: fold change in EC50
patient_146514 = assay type: cell-based, HIV
Experimental: (§1) The integrase encoding sequence was amplified from either wildtype HIV-1 (IIIB) or NL4.3 virus, or HXB2D site-directed mutant viruses containing mutations in integrase (such as T66I, S153Y, M154I, or combinations thereof) (Hazuda et al., Science 2000, 287, 646-650), or patient samples. Starting from RNA, extracted from virus supernatant or plasma using the QIAamp® viral RNA extraction kit (Qiagen), cDNA was synthesized by reverse transcription (Expand TM reverse transcriptase, 30 min at 42°C) with the primer 3'EGINT10 (SEQ ID NO 11), followed by a nested PCR. The outer PCR was performed with the primers 5'EGINT1 (SEQ ID NO 1) and 3'EGINT10 (SEQ ID NO 11) (ΔR-IN-vif construct) or 5'EGINT3 (SEQ ID NO 4) and 3'EGINT10 (SEQ ID NO 11) (ΔIN construct) (Expand™ High Fidelity PCR system), and 5 µl of the outer product was used for an inner PCR with primers 5'EGINT2 (SEQ ID NO 3) and 3'EGINT11 (SEQ ID NO 12) (ΔR-IN-vif construct) or 5'EGINT4 (SEQ ID NO 5) and 3'EGINT6 (SEQ ID NO 7) (ΔIN construct). In a second protocol the outer primers were identical as described above, the inner primers are 5'EGINT5 (SEQ ID NO 6) and 3'EGINT6 (SEQ ID NO 7). The amplicons can be used for genotyping and phenotyping. Cycling conditions for both PCRs are denaturation for 3 min at 95°C, followed by 30 cycles of 1 min 90°C, 30 sec 55°C, and 2 min 72°C. A final extension was performed at 72°C for 10 min. For recombination, PCR products are purified using the QiaQuick® 96 PCR BioRobot kit (Qiagen), according to the manufacturer's protocol. If the protocol starts from DNA containing the HIV material such as proviral DNA, the reverse transcriptase step is not needed. The nested approach is also not needed when starting from proviral DNA. The obtained amplicons were sequenced using the primers: In_seq1F (SEQ ID NO 17), In_seq2F (SEQ ID NO 18), In_seq3F (SEQ ID NO 19), IN_seq1R (SEQ ID NO 20), IN_seq2R (SEQ ID NO 21), and IN_seq3R (SEQ ID NO 22).
(§2) A ΔR-IN-vif or ΔIN deletion construct was generated by site-directed mutagenesis on the template pSV40HXB2D with the primers MUT-IN1 (SEQ ID NO 13) and MUT-IN2 (ΔR-IN-vif construct) (SEQ ID NO 14) or MUT-IN3 (SEQ ID NO 15) and MUT-IN4 (SEQ ID NO 16) (ΔIN construct) (protocol Site-directed mutagenesis kit, Stratagene). After DpnI digestion for removal of the methylated template DNA, the construct was digested with SmaI and ligated to circulize the plasmid. The plasmid was transformed into competent cells such as Top10 cells, and colonies were screened for the presence of the deletion construct. The IN-deletion construct was checked by sequence analysis with primers 5'EGINT1 (SEQ ID NO 1) or […] and 3'EGINT10 (SEQ ID NO 11) or 3'EGINT11 (SEQ ID NO 12). For use in recombination experiments, large-scale plasmid DNA preparations were linearized by SmaI digestion and recombined with PCR amplified integrase genes from wild type, mutant, or patient viruses. The plasmid containing the integrase deletion (ΔIN) has been deposited pSV40HXB2D-ΔIN. The sequence of said plasmid is 14377 nucleotides long. The ΔR-IN-vif deletion construct is 13975 nucleotides long. The pSV40HXB2D-ΔIN was deposited at the Belgian Coordinated Collections of Micro-Organisms located at the Universiteit Gent - Laboratorium voor Moleculaire Biologie on August 5, 2002 and the accession number is LMBP 4574.
(§3) Recombinant virus was produced by co-transfection by electroporation of the SmaI-linearized IN-deletion construct and the integrase amplicon into MT4 cells or MT4 cells equipped with an LTR driven reporter gene construct. Production of recombinant virus was evaluated by scoring the cytopathogenic effect (CPE) that is induced by HIV-infection of MT4 cells or by the LTR-driven reporter signal induced by HIV infection in MT4 reporter cells.

NL 4-3 = assay type: cell-based, HIV-1
Experimental: as §1, §2, §3

WT III B = assay type: cell-based, HIV-1
Experimental: as §1, §2, §3

[1] = AVE 2, patient_146514, primer set 3
[2] = Human immunodeficiency virus 1, AVE 2, patient_146514, primer set 3
[3] = Human immunodeficiency virus 1, AVE 1, NL 4-3, primer set 3
[4] = Human immunodeficiency virus 1, NL43, AVE 4, NL4-3, primer set 4
[5] = Human immunodeficiency virus 1, AVE 3, WT III B, primer set 3
[6] = Human immunodeficiency virus 1, AVE 5, WT III B, primer set 4

For `O=c1[nH]cnc2c1ncn2[C@H]1CC[C@@H](CO)O1` [DDI, Didanosine], the fold change (patient_146514; [1]) was 2,2, the EC50 (patient_146514; [2]) was 10400 nM and the fold change (NL 4-3; AVE 1, NL 4-3, primer set 3) was 0,7. The fold change (NL 4-3; AVE 4, NL4-3, primer set 4) was 1,6, the EC50 (NL 4-3; [3]) was 3360 nM and the EC50 (NL 4-3; [4]) was 7890 nM. The fold change (WT III B; AVE 3, WT III B, primer set 3) was 0,5, the fold change (WT III B; AVE 5, WT III B, primer set 4) was 1,6 and the EC50 (WT III B; [5]) was 2540 nM. For the same compound, the EC50 (WT III B; [6]) was 7500 nM.

In the case of `CC(C)(C)NC(=O)[C@@H]1C[C@@H]2CCCC[C@@H]2CN1C[C@@H](O)[C@H](Cc1ccccc1)NC(=O)[C@H](CC(N)=O)NC(=O)c1ccc2ccccc2n1` [SQV, Saquinavir], the fold change (patient_146514; [1]) is reported as 1,7, the EC50 (patient_146514; [2]) is reported as 34.5 nM and the fold change (NL 4-3; AVE 1, NL 4-3, primer set 3) is reported as 1,2. For the same compound, the fold change (NL 4-3; AVE 4, NL4-3, primer set 4) was 1,9, the EC50 (NL 4-3; [3]) was 23.3 nM and the EC50 (NL 4-3; [4]) was 38.5 nM. The fold change (WT III B; AVE 3, WT III B, primer set 3) was 0,7, the fold change (WT III B; AVE 5, WT III B, primer set 4) was 1,8 and the EC50 (WT III B; [5]) was 13 nM. It also gave an EC50 (WT III B; [6]) of 35.6 nM.

In the case of `CC(C)CN(C[C@@H](O)[C@H](Cc1ccccc1)NC(=O)O[C@H]1CCOC1)S(=O)(=O)c1ccc(N)cc1` [APV, Amprenavir], the fold change (patient_146514; [1]) is reported as 1,4, the EC50 (patient_146514; [2]) is reported as 117 nM and the fold change (NL 4-3; AVE 1, NL 4-3, primer set 3) is reported as 0,6. The fold change (NL 4-3; AVE 4, NL4-3, primer set 4) was 1,3, the EC50 (NL 4-3; [3]) was 49.6 nM and the EC50 (NL 4-3; [4]) was 113 nM. For the same compound, the fold change (WT III B; AVE 3, WT III B, primer set 3) was 0,5, the fold change (WT III B; AVE 5, WT III B, primer set 4) was 0,7 and the EC50 (WT III B; [5]) was 46 nM. For the same compound, the EC50 (WT III B; [6]) was 60.6 nM.

For `O=C(O)C1=CC(=C(c2ccc(O)c(C(=O)O)c2)c2ccc(O)c(C(=O)O)c2)C=CC1=O` [ATA], the fold change (patient_146514; [1]) was 1,0, the EC50 (patient_146514; AVE 2, patient_146514, primer set 3, read-out: EC 50) was 1970 nM and the fold change (NL 4-3; AVE 1, NL 4-3, primer set 3) was 0,9. The EC50 (NL 4-3; AVE 1, NL 4-3, primer set 3, read-out: EC 50) was 1960 nM, the fold change (NL 4-3; AVE 4, NL4-3, primer set 4) was 1,2 and the EC50 (NL 4-3; AVE 4, NL4-3, primer set 4, read-out: EC 50) was 2510 nM. The fold change (WT III B; AVE 3, WT III B, primer set 3) was 0,4, the EC50 (WT III B; AVE 3, WT III B, primer set 3, read-out: EC 50) was 730 nM and the fold change (WT III B; AVE 5, WT III B, primer set 4) was 0,4. It also gave an EC50 (WT III B; AVE 5, WT III B, primer set 4, read-out: EC 50) of 861 nM.

`Cc1cc(C#N)cc(C)c1Oc1nc(Nc2ccc(C#N)cc2)nc(N)c1Br` [Compound 2, 4-[[6-amino-5-bromo-2-[(4-cyanophenyl)amino]-4-pyrimidinyl]oxy]-3,5-dimethyl-Benzonitrile] was tested, and the EC50 (patient_146514; [1]) was 3.9 nM, the fold change (patient_146514; [1]) was 1,3 and the EC50 (NL 4-3; AVE 1, NL 4-3, primer set 3) was 2.6 nM. The fold change (NL 4-3; AVE 1, NL 4-3, primer set 3) was 0,8, the EC50 (NL 4-3; AVE 4, NL4-3, primer set 4) was 2.8 nM and the fold change (NL 4-3; AVE 4, NL4-3, primer set 4) was 0,9. For the same compound, the EC50 (WT III B; AVE 3, WT III B, primer set 3) was 2.8 nM, the fold change (WT III B; AVE 3, WT III B, primer set 3) was 0,9 and the EC50 (WT III B; AVE 5, WT III B, primer set 4) was 2.9 nM. The fold change (WT III B; AVE 5, WT III B, primer set 4) was 0,9.

With `CC(C)Oc1ccc(Cc2ccccc2)cc1C(=O)CC(=O)C(=O)O` [Compound 4, 2-(1-methylethyloxy)-α,γ dioxo-5-(phenylmethyl)-benzenebutanoic acid] the fold change (patient_146514; [1]) was 1,0, the EC50 (patient_146514; [2]) was 280 nM and the fold change (NL 4-3; AVE 1, NL 4-3, primer set 3) was 0,6. The fold change (NL 4-3; AVE 4, NL4-3, primer set 4) was 0,9, the EC50 (NL 4-3; [3]) was 172 nM and the EC50 (NL 4-3; [4]) was 242 nM. The fold change (WT III B; AVE 3, WT III B, primer set 3) was 0,4, the fold change (WT III B; AVE 5, WT III B, primer set 4) was 0,7 and the EC50 (WT III B; [5]) was 106 nM. For the same compound, the EC50 (WT III B; [6]) was 186 nM.
